From ChEMBL document CHEMBL4406843, “β-Amino acid derivatives as mitochondrial complex III inhibitors of L. donovani: A promising chemotype targeting visceral leishmaniasis” (Eur J Med Chem, 2019)
Calls of active or inactive are those of the source. The rule behind the calls is not given here.

Tests used:
[1] = Cytotoxicity against African green monkey Vero cells assessed as cell viability at 25 uM by MTT assay relative to control; type: cell-based; settings: chlorocebus sabaeus, read-out: Activity
[2] = Cytotoxicity against African green monkey Vero cells assessed as cell viability at 50 uM by MTT assay relative to control; type: cell-based; settings: chlorocebus sabaeus, read-out: Activity
Leishmania donovani [3] = assay: Antileishmanial activity against promastigote stage of Leishmania donovani MHOM/IN/80/Dd8 harboring luciferase reporter gene at 100 uM after 48 hrs by Steady-Glo luminescence assay relative to control; type: functional; settings: MHOM/IN/80/Dd8, 48 h
Leishmania donovani [4] = assay: Antileishmanial activity against Leishmania donovani MHOM/IN/80/Dd8 amastigotes harboring luciferase reporter gene infected in mouse J774 cells at 25 uM after 72 hrs by Steady-Glo luminescence assay relative to control; type: functional; settings: MHOM/IN/80/Dd8, J774, 72 h
Leishmania donovani [5] = assay: Antileishmanial activity against Leishmania donovani MHOM/IN/80/Dd8 amastigotes harboring luciferase reporter gene infected in mouse J774 cells at 50 uM after 72 hrs by Steady-Glo luminescence assay relative to control; type: functional; settings: MHOM/IN/80/Dd8, J774, 72 h
Leishmania donovani [6] = assay: Antileishmanial activity against Leishmania donovani MHOM/IN/80/Dd8 amastigotes harboring luciferase reporter gene infected in mouse J774 cells at 100 uM after 72 hrs by Steady-Glo luminescence assay relative to control; type: functional; settings: MHOM/IN/80/Dd8, J774, 72 h
Leishmania donovani [7] = assay: Antileishmanial activity against Leishmania donovani MHOM/IN/80/Dd8 promastigotes harboring luciferase reporter gene assessed as inhibition of viability at 3.12 to 100 uM after 24 to 72 hrs by MTT assay relative to control; type: functional
Leishmania donovani [8] = assay: Antileishmanial activity against Leishmania donovani MHOM/IN/80/Dd8 amastigotes harboring luciferase reporter gene infected in mouse J774 cells at 3.12 to 100 uM after 48 hrs by Steady-Glo luminescence assay relative to control; type: functional
[9] = Cytotoxicity against mouse J774 cells assessed as cell viability up to 100 uM after 72 hrs by MTT assay relative to control; type: cell-based; settings: read-out: Activity
[10] = Cytotoxicity against mouse J774 cells assessed as reduction in cell viability after 72 hrs by MTT assay; type: cell-based
[11] = Selectivity index, ratio of CC50 for mouse J774 cells to IC50 for antileishmanial activity against Leishmania donovani MHOM/IN/80/Dd8 amastigotes harboring luciferase reporter gene; type: toxicity; settings: read-out: Ratio CC50/IC50
[12] = Selectivity index, ratio of CC50 for African green monkey Vero cells to IC50 for antileishmanial activity against Leishmania donovani MHOM/IN/80/Dd8 amastigotes harboring luciferase reporter gene; type: toxicity; settings: read-out: Ratio CC50/IC50
[13] = Stability in simulated intestinal fluid at 10 ug/ml measured after 2 hrs by UPLC analysis relative to control; type: ADME; settings: read-out: Stability
[14] = Stability in mouse liver microsomes assessed as compound remaining after 1 hr in presence of NADPH by UPLC analysis; type: ADME, Microsome; settings: read-out: Stability
[15] = Half life in mouse liver microsomes after 1 hr in presence of NADPH by UPLC analysis; type: ADME, Microsome
Leishmania donovani [16] = assay: (§1) Antileishmanial activity against Leishmania donovani promastigotes infected in BALB/c mouse assessed as inhibition in parasite burden in spleen at 50 mg/kg, ip administered for 7 days starting at 15 days post-infection and measured after 1 week post last dose Giemsa staining-based assay relative to control; type: functional
Leishmania donovani [17] = assay: as §1, with “100” for “50”; type: functional
Leishmania donovani [18] = assay: as §1, with “liver” for “spleen”, “200” for “50”; type: functional
Leishmania donovani [19] = assay: Antileishmanial activity against Leishmania donovani amastigotes infected in golden hamster assessed as reduction in parasite burden in liver at 50 mg/kg, ip administered on alternative days for 4 weeks starting at 4 weeks post-infection and measured after 2 week post last dose Giemsa staining-based assay relative to control; type: functional
[20] = Toxicity in BALB/c mouse infected with Leishmania donovani promastigotes assessed as survival at 12.5 to 200 mg/kg, ip administered for 7 days starting at 15 days post-infection; type: organism-based; settings: in vivo
[21] = Toxicity in golden hamster infected with Leishmania donovani amastigotes assessed as reduction in serum AST level at 50 mg/kg , ip and measured after 10 weeks post infection (reference value: 113 U/L); type: organism-based, Mesocricetus auratus; settings: in vivo, 1680 h
[22] = Toxicity in golden hamster infected with Leishmania donovani amastigotes assessed as reduction in serum ALT level at 50 mg/kg , ip and measured after 10 weeks post infection (reference value: 216 U/L); type: organism-based, Mesocricetus auratus; settings: in vivo, 1680 h
Mus musculus = assay: Immunostimulatory activity in BALB/c mouse infected with Leishmania donovani promastigotes assessed as induction of TNF-alpha cytokine production at 50 mg/kg administered for 5 days starting at 15 days post infection and measured after 3 to 7 weeks by ELISA; type: functional, organism-based
Leishmania donovani [23] = assay: Induction of plasma membrane permeabilization in Leishmania donovani promastigotes assessed as increase in fluorescence at 50 uM after 2 hrs by SYTOX green-based flow cytometry analysis relative to control; type: functional
Leishmania donovani [24] = assay: Induction of mitochondrial dysfunction in Leishmania donovani promastigotes assessed as reduction in mitochondrial membrane potential at 50 uM after 24 hrs by JC-1 staining-based flow cytometric analysis (reference value: 7.73%); type: functional; parameters: scale not given: the % may be the effect or the level left
Leishmania donovani [25] = assay: Induction of mitochondrial dysfunction in Leishmania donovani promastigotes assessed as reduction in mitochondrial membrane potential at 50 uM after 48 hrs by JC-1 staining-based flow cytometric analysis (reference value: 7.73%); type: functional; parameters: scale not given: the % may be the effect or the level left
Leishmania donovani [26] = assay: Induction of apoptosis in Leishmania donovani promastigotes assessed as necrotic cells at 50 uM after 24 hrs by Annexin-V/propidium iodide staining based flow cytometric method (reference value: 0.06%); type: functional
Leishmania donovani [27] = assay: Induction of apoptosis in Leishmania donovani promastigotes assessed as early apoptotic cells at 50 uM after 48 hrs by Annexin-V/propidium iodide staining based flow cytometric method (reference value: 5.79%); type: functional
Leishmania donovani [28] = assay: Induction of apoptosis in Leishmania donovani promastigotes assessed as late apoptotic cells at 50 uM after 48 hrs by Annexin-V/propidium iodide staining based flow cytometric method (reference value: 0.59%); type: functional
Leishmania donovani [29] = assay: Induction of ROS generation in Leishmania donovani promastigotes at 50 uM after 6 hrs by H2DCFDA probe based flow cytometry (reference value: 1.97%); type: functional
Leishmania donovani [30] = assay: Induction of ROS generation in Leishmania donovani promastigotes at 50 uM after 24 hrs by H2DCFDA probe based flow cytometry (reference value: 1.97%); type: functional
Leishmania donovani [31] = assay: Induction of ROS generation in Leishmania donovani promastigotes at 50 uM after 48 hrs by H2DCFDA probe based flow cytometry (reference value: 1.97%); type: functional
Leishmania donovani [32] = assay: Inhibition of […] in Leishmania donovani promastigotes mitochondria at 8.1 to 50 uM using decylubiquinol as substrate in presence of cytochrome c
[33] = AUC(0 to infinity) in BALB/c mouse at 50 mg/kg, ip by HPLC analysis; type: ADME, organism-based; parameters: dose 50 mg/kg, route intraperitoneal, time infinity; settings: in vivo
[34] = Volume of distribution in BALB/c mouse at 50 mg/kg, ip by HPLC analysis; type: ADME, organism-based; settings: in vivo
[35] = Toxicity in golden hamster infected with Leishmania donovani amastigotes assessed as effect on body weight at 12.5 to 200 mg/kg, ip administered on alternative days for 4 weeks starting at 4 weeks post-infection; type: organism-based, Mesocricetus auratus; settings: in vivo, 672 h

With `CCOC(=O)C(C(=O)c1ccc(OC)cc1)C(NC(C)=O)c1cccc2ccccc12` (stereo unspecified) as the compound, how does the viability at 25 µM [1] read?
Its viability at 25 µM is 99.2%.

What about the viability at 50 µM [2] of the same compound?
Its viability at 50 µM is 98.7%.

And the inhibition at 100 µM (Leishmania donovani [3])?
Its inhibition at 100 µM is 97.1%.

What about the inhibition at 25 µM (Leishmania donovani [4]) of the same compound?
The inhibition at 25 µM was 64.1%.

And the inhibition at 50 µM (Leishmania donovani [5])?
The inhibition at 50 µM was 93.5%.

And the inhibition at 100 µM (Leishmania donovani [6])?
The inhibition at 100 µM was 95.9%.

What about the “inhibition (INH)” value (Leishmania donovani [7]) of the same compound?
Its value is 95.4%.

What about the “inhibition (INH)” value (Leishmania donovani [8]) of the same compound?
The value was over 92%.

And the viability at 72 h [9]?
Its viability at 72 h is over 93%.

What about the CC50 at 72 h [10] of the same compound?
The CC50 at 72 h was over 350 µM.

And the selectivity ratio [11]?
Its selectivity ratio is 23.4.

What about the selectivity ratio [12] of the same compound?
The selectivity ratio was 25.7.

What about the remaining at 2 h, 10 ug/ml [13] of the same compound?
Its remaining at 2 h, 10 ug/ml is 80.2%.

What about the remaining at 1 h [14] of the same compound?
Its remaining at 1 h is 86.9%.

And the half-life [15]?
Its half-life is 5.22 h.

What about the inhibition in vivo at 50 mg/kg (Leishmania donovani [16]) of the same compound?
Its inhibition in vivo at 50 mg/kg is 92.5%.

And the inhibition in vivo at 100 mg/kg (Leishmania donovani [17])?
The inhibition in vivo at 100 mg/kg was 92.8%.

What about the inhibition in vivo at 200 mg/kg (Leishmania donovani [18]) of the same compound?
The inhibition in vivo at 200 mg/kg was 92.1%.

What about the inhibition in vivo at 50 mg/kg (Leishmania donovani [19]) of the same compound?
The inhibition in vivo at 50 mg/kg was 88.2%.

What about the Activity [20] of the same compound?
Its Activity is “Non-Toxic”.

What about the Activity [21] of the same compound?
Its Activity is 92 IU/L.

What about the Activity [22] of the same compound?
The Activity was 166 IU/L.

What about the Activity (Mus musculus) of the same compound?
The Activity was “inactive”.

What about the Activity (Leishmania donovani [23]) of the same compound?
Its Activity is 3.1%.

What about the Activity (Leishmania donovani [24]) of the same compound?
The Activity was 63.61%.

What about the Activity (Leishmania donovani [25]) of the same compound?
The Activity was 67.97%.

And the Activity (Leishmania donovani [26])?
The Activity was 0.07%.

And the Activity (Leishmania donovani [27])?
Its Activity is 17.8%.

What about the Activity (Leishmania donovani [28]) of the same compound?
Its Activity is 2.65%.

What about the Activity (Leishmania donovani [29]) of the same compound?
Its Activity is 30.3%.

What about the Activity (Leishmania donovani [30]) of the same compound?
The Activity was 85.54%.

What about the Activity (Leishmania donovani [31]) of the same compound?
Its Activity is 65.74%.

What about the inhibition (Leishmania donovani [32]) of the same compound?
The inhibition was “inactive”.

And the AUC(0-inf) [33]?
Its AUC(0-inf) is 1280 ng·h/mL.

What about the Vd [34] of the same compound?
The Vd was 301.51 L/kg.

What about the Activity [35] of the same compound?
Its Activity is “Non-Toxic”.
